This note sets out measurements from US9370503B1, “Compounds for treating ocular diseases” (priority 2015, dated 2016).

This test concerns laser induced AMD rat model. The test can be described thus: Laser induced AMD rat model, CNV area by fluorescein angiography. Type of test: in vivo. The settings on record: (II) instillation, laser rupture of Bruch's membrane, vs control about 2.5 mm^2. As to the method:
The rats were randomly divided into 2 groups. Control group was instilled with vehicle (30% HP-β-CD solution). […] Both eyes of all rats were instilled with 1 drop of ophthalmic solutions 3 times a day for 1 week before and 4 weeks after laser induced injury. The rats were anesthetized for all procedures with intramuscular injection of ketamine (35 mg/kg) and xylazine (5 mg/kg). The pupils were dilated with one drop each of 10 mg/ml atropine, and 25 mg/ml phenylephrine. The fundus was visualized by the VOLK super Pupil XL Biomicroscopy Lens (Keeler Instruments Inc., Broomall, Pa., USA). A double frequency Nd:YAG laser (Laserex LP3532; Lumenis Inc., Salt Lake City, Utah, USA) was used at 532 nm wavelength. Laser parameters were used by 100 μm spot size, 0.15-second exposure and 150-200 mw powers. Five laser spots were made to the ocular fundus at approximately equal distances around the optic nerves. […] Only laser spots with bubble formation were included in the study. Lesions with subretinal hemorrhage were excluded. Fluorescein angiography (FA) was performed after 2 and 4 weeks laser treatment with a digital fundus camera (TRC-50EX; TOPCON, Tokyo, Japan). 100 mg/ml fluorescein sodium salt was injected (0.5 ml/kg) through hypoglossal vein. Both early (under 2 minutes) and late (over 7 minutes) fluorescein phases were captured. […]

Regarding `CC(C)=CCC/C(C)=C/Cc1c([C@@H]2CC(=O)c3c(cc(O)c(CC=C(C)C)c3O)O2)ccc(O)c1O` [Formula (II)], the “area of CNV formation” value is recorded as “significantly suppressed”.
